Measured values as given in PubChem BioAssay AID1745844 (Carcinogenic Potency Database (CPDB), 2022).

Test system: rodent lifetime carcinogenesis bioassay, tumor incidence TD50
Test: chronic cancer bioassays in animals – CPDB, compiled studies (AID 1745844)
Details: rat, strain Fischer 344, by gavage

ClCC(Cl)CCl
TD50 (females, site: mammary gland, lesion: fibroadenoma, dosed 91 weeks, study length 105 weeks): 3.42 mg/kg/day
TD50 (females, site: palate + pharynx + tongue, lesion: squamous-cell papilloma + squamous-cell carcinoma, dosed 91 weeks, study length 105 weeks): 2.93 mg/kg/day
TD50 (females, site: palate + pharynx, lesion: squamous-cell carcinoma, dosed 91 weeks, study length 105 weeks): 8.87 mg/kg/day
TD50 (females, site: palate + tongue, lesion: squamous-cell papilloma, dosed 91 weeks, study length 105 weeks): 5.98 mg/kg/day
TD50 (females, site: palate, lesion: squamous-cell papilloma, dosed 91 weeks, study length 105 weeks): 18.5 mg/kg/day
TD50 (females, site: pharynx + tongue, lesion: squamous-cell carcinoma, dosed 91 weeks, study length 105 weeks): 5.12 mg/kg/day
TD50 (females, site: thyroid gland, lesion: follicular-cell adenoma + follicular-cell carcinoma, dosed 91 weeks, study length 105 weeks): 25.2 mg/kg/day
TD50 (females, site: thyroid gland, lesion: follicular-cell adenoma, dosed 91 weeks, study length 105 weeks): 36.9 mg/kg/day
TD50 (females, site: tongue, lesion: squamous-cell carcinoma + squamous-cell papilloma, dosed 91 weeks, study length 105 weeks): 4.7 mg/kg/day
TD50 (females, site: tongue, lesion: squamous-cell carcinoma, dosed 91 weeks, study length 105 weeks): 10.1 mg/kg/day
TD50 (females, site: tongue, lesion: squamous-cell papilloma, dosed 91 weeks, study length 105 weeks): 9.61 mg/kg/day
TD50 (males, site: Zymbal's gland, lesion: carcinoma, dosed 94 weeks, study length 104 weeks): 297 mg/kg/day
TD50 (males, site: adrenal medulla, lesion: pheochromocytoma benign, bilateral + pheochromocytoma, benign, dosed 94 weeks, study length 104 weeks): 12.4 mg/kg/day
TD50 (males, site: adrenal medulla, lesion: pheochromocytoma benign, bilateral + pheochromocytoma, complex + pheochromocytoma, malignant + pheochromocytoma, benign, dosed 94 weeks, study length 104 weeks): 11.4 mg/kg/day
TD50 (males, site: all sites, lesion: mononuclear-cell leukemia, dosed 94 weeks, study length 104 weeks): 11.9 mg/kg/day
TD50 (males, site: any site (literature study), lesion: several types, types named in the paper, dosed 94 weeks, study length 104 weeks): 1.36 mg/kg/day
TD50 (males, site: colon + jejunum + rectum, lesion: adenocarcinoma + adenomatous polyp, dosed 94 weeks, study length 104 weeks): 73.4 mg/kg/day
TD50 (males, site: colon + jejunum, lesion: adenocarcinoma, dosed 94 weeks, study length 104 weeks): 102 mg/kg/day
TD50 (males, site: colon + rectum, lesion: adenomatous polyp, dosed 94 weeks, study length 104 weeks): 264 mg/kg/day
TD50 (males, site: forestomach + kidney + palate + pancreas + preputial gland + tongue + Zymbal's gland, lesion: squamous-cell carcinoma + squamous-cell papilloma + tubule adenoma + adenoma + acinar-cell adenoma + acinar-cell adenocarcinoma + ca, dosed 94 weeks, study length 104 weeks): 1.1 mg/kg/day
TD50 (males, site: forestomach, lesion: squamous-cell carcinoma + squamous-cell papilloma, dosed 94 weeks, study length 104 weeks): 1.15 mg/kg/day
TD50 (males, site: forestomach, lesion: squamous-cell carcinoma, dosed 94 weeks, study length 104 weeks): 3 mg/kg/day
TD50 (males, site: forestomach, lesion: squamous-cell papilloma, dosed 94 weeks, study length 104 weeks): 1.53 mg/kg/day
TD50 (males, site: kidney, lesion: tubule adenoma, dosed 94 weeks, study length 104 weeks): 4.44 mg/kg/day
TD50 (males, site: liver, lesion: hepatocellular adenoma + hepatoblastoma + hepatocellular carcinoma, dosed 94 weeks, study length 104 weeks): 23 mg/kg/day
TD50 (males, site: liver, lesion: hepatocellular adenoma + hepatocellular carcinoma, dosed 94 weeks, study length 104 weeks): 23 mg/kg/day
TD50 (males, site: liver, lesion: hepatocellular adenoma, dosed 94 weeks, study length 104 weeks): 31.7 mg/kg/day
TD50 (males, site: palate + tongue, lesion: squamous-cell carcinoma + squamous-cell papilloma, dosed 94 weeks, study length 104 weeks): 4.48 mg/kg/day
TD50 (males, site: palate + tongue, lesion: squamous-cell carcinoma, dosed 94 weeks, study length 104 weeks): 8.65 mg/kg/day
TD50 (males, site: palate + tongue, lesion: squamous-cell papilloma, dosed 94 weeks, study length 104 weeks): 8.16 mg/kg/day
TD50 (males, site: palate, lesion: squamous-cell carcinoma, dosed 94 weeks, study length 104 weeks): 11.7 mg/kg/day
TD50 (males, site: palate, lesion: squamous-cell papilloma, dosed 94 weeks, study length 104 weeks): 36.6 mg/kg/day
TD50 (males, site: pancreas, lesion: acinar-cell adenocarcinoma, dosed 94 weeks, study length 104 weeks): 51.5 mg/kg/day
TD50 (males, site: pancreas, lesion: adenoma + acinar-cell adenoma + acinar-cell adenocarcinoma, dosed 94 weeks, study length 104 weeks): 1.65 mg/kg/day
TD50 (males, site: pancreas, lesion: adenoma + acinar-cell adenoma, dosed 94 weeks, study length 104 weeks): 1.65 mg/kg/day
TD50 (males, site: preputial gland, lesion: adenoma + carcinoma, dosed 94 weeks, study length 104 weeks): 9.59 mg/kg/day
TD50 (males, site: preputial gland, lesion: adenoma, dosed 94 weeks, study length 104 weeks): 14 mg/kg/day
TD50 (males, site: preputial gland, lesion: carcinoma, dosed 94 weeks, study length 104 weeks): 28 mg/kg/day
TD50 (males, site: skin, lesion: basal-cell carcinoma + keratoacanthoma + squamous-cell carcinoma + squamous-cell papilloma + trichoepithelioma, dosed 94 weeks, study length 104 weeks): 20.8 mg/kg/day
TD50 (males, site: skin, lesion: squamous-cell carcinoma + squamous-cell papilloma, dosed 94 weeks, study length 104 weeks): 39.6 mg/kg/day
TD50 (males, site: skin, lesion: squamous-cell papilloma, dosed 94 weeks, study length 104 weeks): 51 mg/kg/day
TD50 (males, site: subcutaneous tissue, lesion: fibroma + sarcoma, dosed 94 weeks, study length 104 weeks): 19.6 mg/kg/day
TD50 (males, site: subcutaneous tissue, lesion: fibroma, dosed 94 weeks, study length 104 weeks): 20.2 mg/kg/day
TD50 (males, site: testis, lesion: interstitial-cell adenoma, bilateral + interstitial-cell adenoma, dosed 94 weeks, study length 104 weeks): 1.35 mg/kg/day
TD50 (males, site: thyroid gland, lesion: c-cell adenoma + c-cell carcinoma, dosed 94 weeks, study length 104 weeks): 8.15 mg/kg/day
TD50 (males, site: thyroid gland, lesion: c-cell adenoma, dosed 94 weeks, study length 104 weeks): 10.3 mg/kg/day
TD50 (males, site: thyroid gland, lesion: follicular-cell adenoma + follicular-cell carcinoma, dosed 94 weeks, study length 104 weeks): 35.2 mg/kg/day
TD50 (males, site: tongue, lesion: squamous-cell carcinoma + squamous-cell papilloma, dosed 94 weeks, study length 104 weeks): 7.86 mg/kg/day
TD50 (males, site: tongue, lesion: squamous-cell carcinoma, dosed 94 weeks, study length 104 weeks): 34.7 mg/kg/day
TD50 (males, site: tongue, lesion: squamous-cell papilloma, dosed 94 weeks, study length 104 weeks): 10.2 mg/kg/day
